Experimental data reported in US12122785B2, “Substituted pyridines, pyridazines, pyrimidines, and 1,2,4-triazines as TYK2 inhibitors” (Sudo Biosciences Limited, priority 2021, dated 2024).

How the values were obtained:
[1] = system: IFNγ-stimulated HEK-Blue IFNγ reporter cells; experiment: HEK-Blue IFNγ reporter assay (STAT1-inducible SEAP) for determining selectivity; assay type: cell-based; details: 50 ng/mL human recombinant IFNγ, 24 hours, read-out: IFN-γ SEAP selectivity assay IC50
How it was run: (§1)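 Cells were plated for 20-22 h, then pretreated with serially diluted compound for 60 min. They were stimulated for 24 h with 4 ng/mL human recombinant IL-2 or 50 ng/mL human recombinant IFNγ, and SEAP induction was read with QUANTI-Blue.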

JAK2 kinase domain (JH1) = molecular target: T1, JAK2 kinase domain (JH1) (Homo sapiens, UniProt O60674); experiment: HTRF-based selectivity assay, JAK2 catalytic domain; assay type: biochemical; details: 14.7 μM ATP
T1 construct: recombinant purified His or GST-tagged catalytic domain for each enzyme; made in house
How it was run: (§2)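 Recombinant His- or GST-tagged JAK catalytic domains (JAK1 80.6, JAK2 2.1, JAK3 171.8 ng/mL) preincubated with compound 5-20 min at RT, then ATP (JAK1 21.43, JAK2 14.7, JAK3 2.12 μM) plus peptide substrate (454.7, 200, 257.4 nM respectively) added. HEPES buffer with MgCl2, 60 min at 26.5 °C; HTRF read-out.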

JAK3 kinase domain (JH1) = molecular target: T2, JAK3 kinase domain (JH1) (Homo sapiens, UniProt P52333); experiment: HTRF-based selectivity assay, JAK3 catalytic domain; assay type: biochemical; details: 2.12 μM ATP
T2 construct: recombinant purified His or GST-tagged catalytic domain for each enzyme; purchased Carna biosciences 08-046
Protocol: Example B-2: HTRF-Based Selectivity Assay
The ability of compounds to inhibit the activity of JAK1, JAK2, JAK3 and TYK2 is measured using a recombinant purified His or GST-tagged catalytic domain for each enzyme (JAK1, JAK2 and TYK2 are generated in-house; JAK3 was purchased from Carna biosciences, Cat #08-046) in an HTRF format biochemical assay. The reactions employs a commercial peptide substrate from Cisbio (Cat #62TK0PEC). The basic assay protocol is as follows: first, 2.5 μL of diluted compounds (4×) in DMSO are dispensed into a 384-well Optiplate. Next, 2.5 μL of enzyme (final concentrations for enzymes are: TYK2—700 ng/mL, JAK1—80.6 ng/mL, JAK2—2.1 ng/mL and JAK3—171.8 ng/mL) is added and incubated at RT for 5-20 min. Finally, 5 μl of mixture of 2×ATP [Final concentration 20 μM for TYK2, 21.43 μM for JAK1, 14.7 μM for JAK2 and 2.12 μM for JAK3]+2× Substrate [Final concentration 217 nM for TYK2, 454.7 nM for JAK1, 200 nM for JAK2 and 257.4 nM for JAK3] is added to 384 well Optiplate. Composition of Kinase assay buffer used in the assay is as follows: HEPES 50 mM, EGTA 1 mM, MgCl2 10 mM, DTT 2 mM, Tween-20 0.01% and water. Then the plates are shaken and then incubated at 26.5° C. for 60 min.

[2] = system: TYK2 pseudokinase (JH2); IL-23-stimulated HEK-Blue IL-23 cells; experiment: HEK-Blue IL-23 reporter assay (STAT3-inducible SEAP) for profiling TYK2 pseudokinase (JH2) inhibition; assay type: cell-based; details: 10 ng/mL human recombinant IL-23, SEAP readout, read-out: IL23 (TYK2 inhibitory activity, IC50)
How it was run: (§3)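 STAT-driven SEAP expression is measured with QUANTI-Blue. Cells receive test compound in serial dilution 60 min ahead of 10 ng/mL IL-23 (22-24 h) or 1 ng/mL IFNα (16-18 h).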

[3] = system: TYK2 pseudokinase (JH2); IFNα-stimulated HEK-Blue IFNα/β cells; experiment: HEK-Blue IFNα/β reporter assay (STAT1-inducible SEAP) for profiling TYK2 pseudokinase (JH2) inhibition; assay type: cell-based; details: 1 ng/mL human recombinant IFNα, SEAP readout, read-out: IFNα (TYK2 inhibitory activity, IC50)
How it was run: as §3

JAK1 kinase domain (JH1) = molecular target: T3, JAK1 kinase domain (JH1) (Homo sapiens, UniProt P23458); experiment: HTRF-based selectivity assay, JAK1 catalytic domain; assay type: biochemical; details: 21.43 μM ATP, read-out: JAK-JHI (IC50)
T3 construct: recombinant purified His or GST-tagged catalytic domain for each enzyme; made in house
How it was run: as §2

[4] = system: IL-2-stimulated HEK-Blue IL-2 reporter cells; experiment: HEK-Blue IL-2 reporter assay (STAT5-inducible SEAP) for determining selectivity; assay type: cell-based; details: 4 ng/mL human recombinant IL-2, 24 hours
How it was run: as §1

TYK2 kinase domain (JH1) = molecular target: T4, TYK2 kinase domain (JH1) (Homo sapiens, UniProt P29597); experiment: HTRF-based selectivity assay, TYK2 catalytic domain; assay type: biochemical; details: 20 μM ATP
T4 construct: recombinant purified His or GST-tagged catalytic domain for each enzyme; made in house
T4 sequence (P29597 897-1176 limits assumed): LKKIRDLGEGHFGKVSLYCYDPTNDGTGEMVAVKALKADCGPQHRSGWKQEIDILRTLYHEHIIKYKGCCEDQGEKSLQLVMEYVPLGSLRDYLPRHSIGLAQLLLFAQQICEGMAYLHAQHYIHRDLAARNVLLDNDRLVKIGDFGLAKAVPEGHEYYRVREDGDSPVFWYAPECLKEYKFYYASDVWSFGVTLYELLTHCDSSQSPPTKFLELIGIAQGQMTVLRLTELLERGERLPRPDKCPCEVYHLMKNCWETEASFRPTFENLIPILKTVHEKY

T3 sequence (P23458 875-1153 limits assumed): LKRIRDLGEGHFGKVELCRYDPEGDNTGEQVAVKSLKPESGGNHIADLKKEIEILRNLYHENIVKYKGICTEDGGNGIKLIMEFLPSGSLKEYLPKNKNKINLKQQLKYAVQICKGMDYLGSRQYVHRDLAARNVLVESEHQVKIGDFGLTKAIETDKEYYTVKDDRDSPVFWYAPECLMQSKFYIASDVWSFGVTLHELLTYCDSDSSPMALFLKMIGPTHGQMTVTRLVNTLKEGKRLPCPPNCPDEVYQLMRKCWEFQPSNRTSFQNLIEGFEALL
T2 sequence (P52333 822-1111 limits assumed): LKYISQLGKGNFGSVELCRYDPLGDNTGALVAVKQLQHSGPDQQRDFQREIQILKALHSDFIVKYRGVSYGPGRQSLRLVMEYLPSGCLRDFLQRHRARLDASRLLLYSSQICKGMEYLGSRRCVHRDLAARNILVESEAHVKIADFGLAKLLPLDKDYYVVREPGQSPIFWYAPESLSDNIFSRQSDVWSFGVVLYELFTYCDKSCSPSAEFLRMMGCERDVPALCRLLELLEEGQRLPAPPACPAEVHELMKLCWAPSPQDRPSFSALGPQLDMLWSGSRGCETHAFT
T1 sequence (O60674 849-1124 limits assumed): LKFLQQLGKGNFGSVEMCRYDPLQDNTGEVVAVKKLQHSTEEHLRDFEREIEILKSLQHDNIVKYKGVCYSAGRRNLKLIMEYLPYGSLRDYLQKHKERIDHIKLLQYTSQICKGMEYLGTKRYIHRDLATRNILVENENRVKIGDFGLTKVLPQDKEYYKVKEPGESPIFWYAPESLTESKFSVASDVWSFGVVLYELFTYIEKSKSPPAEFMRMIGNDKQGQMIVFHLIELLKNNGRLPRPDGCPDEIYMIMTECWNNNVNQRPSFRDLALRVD

SMILES | IC50 [1] [nM] | IC50 (JAK2 kinase domain (JH1)) [nM] | IC50 (JAK3 kinase domain (JH1)) [nM] | IC50 [2] [nM] | IC50 [3] [nM] | IC50 (JAK1 kinase domain (JH1)) [nM] | IC50 [4] [nM] | IC50 (TYK2 kinase domain (JH1)) [nM]
[2H]C([2H])([2H])NC(=O)c1cnc(NC(=O)C2CC2)cc1Nc1cccc2c1N(C)Cc1c[nH]nc1-2 [Compound 23, 6-(cyclopropanecarboxamido)-N-(methyl-d3)-4-((5-methyl-4,5-dihydro-2H-pyrazolo[4,3-c]quinolin-6-yl)amino)nicotinamide] | > 1000 | > 1000 | > 1000 | < 30 | < 30 | > 1000 | > 1000 | > 1000
[2H]C([2H])([2H])NC(=O)c1cnc(NC(=O)C2CC2)cc1Nc1cccc2c1N(C([2H])([2H])[2H])Cc1cn(C)nc1-2 [Compound 26, 6-(cyclopropanecarboxamido)-N-(methyl-d3)-4-((2-methyl-5-(methyl-d3)-4,5-dihydro-2H-pyrazolo[4,3-c]quinolin-6-yl)amino)nicotinamide] | 30 to 300 | > 1000 | > 1000 | < 30 | < 30 | > 1000 | > 1000 | > 1000
[2H]C([2H])([2H])NC(=O)c1nnc(NC(=O)C2CC2)cc1Nc1cccc2c1N(C)Cc1c[nH]nc1-2 [Compound 27, 6-(cyclopropanecarboxamido)-N-(methyl-d3)-4-((5-methyl-4,5-dihydro-2H-pyrazolo[4,3-c]quinolin-6-yl)amino)pyridazine-3-carboxamide] | 30 to 300 | > 1000 | > 1000 | < 30 | < 30 | > 1000 | > 1000 | > 1000
CNC(=O)c1nnc(Nc2ccc(F)cn2)cc1Nc1cccc2c1OCc1cnn(C)c1-2 [Compound 49, 6-((5-fluoropyridin-2-yl)amino)-N-methyl-4-((1-methyl-1,4-dihydrochromeno[4,3-c]pyrazol-6-yl)amino)pyridazine-3-carboxamide] | < 30 | > 1000 | > 1000 | 30 to 300 | > 1000 | > 1000 | 300 to 1000 | > 1000
CNC(=O)c1nnc(NC(=O)C2CC2)cc1Nc1cccc2c1OCc1cnn(C)c1-2 [Compound 50, 6-(cyclopropanecarboxamido)-N-methyl-4-((1-methyl-1,4-dihydrochromeno[4,3-c]pyrazol-6-yl)amino)pyridazine-3-carboxamide] | 300 to 1000 | > 1000 | > 1000 | 300 to 1000 | 300 to 1000 | > 1000 | 30 to 300 | > 1000
[2H]C([2H])([2H])NC(=O)c1cnc(NC(=O)C2CC2)cc1Nc1cccc2c1N(C)Cc1cnn(C)c1-2 [Compound 51, 6-(cyclopropanecarboxamido)-4-((1,5-dimethyl-4,5-dihydro-1H-pyrazolo[4,3-c]quinolin-6-yl)amino)-N-(methyl-d3)nicotinamide] | > 1000 | > 1000 | > 1000 | < 30 | 30 to 300 | > 1000 | > 1000 | > 1000
COC(=O)c1cnc(NC(=O)C2CC2)cc1Nc1cccc2c1N(C)Cc1cn(C)nc1-2 [Compound 60, methyl 6-(cyclopropanecarboxamido)-4-((2,5-dimethyl-4,5-dihydro-2H-pyrazolo[4,3-c]quinolin-6-yl)amino)nicotinate] | > 1000 | > 1000 | > 1000 | < 30 | < 30 | > 1000 | > 1000 | > 1000
[2H]C([2H])([2H])NC(=O)c1cnc(N2CCN(C(C)C)C2=O)cc1Nc1cccc2c1N(C)Cc1cn(C)nc1-2 [Compound 61, 4-((2,5-dimethyl-4,5-dihydro-2H-pyrazolo[4,3-c]quinolin-6-yl)amino)-6-(3-isopropyl-2-oxoimidazolidin-1-yl)-N-(methyl-d3)nicotinamide] | > 1000 | > 1000 | > 1000 | < 30 | 30 to 300 | > 1000 | > 1000 | > 1000
